In PMC5047629, “Synthesis, Pharmacological Profile and Docking Studies of New Sulfonamides Designed as Phosphodiesterase-4 Inhibitors” (PLoS ONE, 2016):

Tests used:
A/J mice [1] = assay: LPS-induced lung inflammation and airway hyper-reactivity; assay type: in vivo; settings: LASSBio-448 2.5 and 10 mg/kg oral, cilomilast 1 mg/kg oral, 1 h before LPS, 24 h post-challenge
Method: A/J mice were anesthetized with isoflurane aerosol and then challenged with LPS (25μg/25 μL) or phosphate buffered solution (PBS) by intranasal instillation as reported. The analyses were performed 24 h after stimulation. Treatment with LASSBio-448 (2.5–10 mg/kg/mice) or cilomilast (1 mg/kg) was performed orally, 1 h before LPS exposure. LASSBio-448 was dissolved in 0.2% Tween 80, while cilomilast was dissolved in 1 M NaOH and further neutralized with 1 N HCl, before adjusting the final volume with 0.9% NaCl solution (saline). The substances were dissolved immediately before use.
(§1) Airflow and transpulmonary pressure were recorded with a Buxco pulmonary mechanics processing system (Buxco Electronics, Sharon, CT), which calculated resistance (cmH2O.s/ml) and dynamic lung compliance (mL/cmH2O) in each breath cycle. Elastance was calculated as the inverse of compliance values. Mice were anesthetized with nembutal (60 mg/kg), and the neuromuscular activity was blocked with bromide pancuronium (1 mg/kg). Animals were allowed to stabilize for 5 min and increasing concentrations of methacholine (3–27 mg/mL) were aerosolized for 5 min each. Baseline pulmonary parameters were assessed with aerosolized phosphate buffer solution (PBS).
The MPO activity present in the lung tissue was colorimetrically determined as described by Hirano (1996), with minor changes. Briefly, after lung perfusion with 20 mM EDTA in 0.9% saline, lung samples were homogenized in Hank´s balanced solution (HBSS) at pH 7.4. The homogenates were centrifuged for 10 min at 1300 xg and 4°C. Red blood cells were removed by hypotonic and hypertonic lysis and suspended cells were re-centrifuged as described above. The pellet was then suspended in HBSS at pH 7.4 containing 0.5% hexadecyltrimethyl ammonium bromide (HTAB). The homogenates were centrifuged for 30 min at 12500 xg and 4°C. The supernatants were then collected and incubated with 0.167 mg/mL of ortho-dianisidine dihydrochloride for 15 min at 37°C, after which 0.0006% H2O2 in 50 mM phosphate buffer at pH 6 was added. The reaction was stopped 10 min later by adding 50 μL of 1% sodium azide. The measurement was done at 460 nm using the SpectraMax M5 microplate reader (Molecular Devices).

PDE4D = molecular target: T1, PDE4D (Homo sapiens, UniProt Q08499); assay: PDE4D inhibition, IMAP fluorescence polarization protocol; assay type: biochemical
T1 construct: purchased MDS PHARMA
Method: The enzymatic reactions were carried at room temperature in a 96-well black plate by co-incubating 25 μL of 200 nM FAM-cAMP (R7513), 5 μL of putative inhibitory compounds and 20 μL of the PDE4 isoform dissolved in assay buffer (R7364) for 1 h. All enzymes were obtained from human recombinant sources (MDS PHARMA), whereas the other reagents were purchased from Molecular Devices. […] PDE4 inhibitors were dissolved in dimethyl sulfoxide (DMSO) at a final concentration of 0.1%.
The inhibitory activities of the new sulfonamide derivatives were evaluated for their selectivity against the four isoforms of human PDE4, i.e. PDE4A, PDE4B, PDE4C, and PDE4D, using an IMAP-FP protocol.

PDE2A = molecular target: T2, PDE2A (Homo sapiens, UniProt O00408); assay: PDE selectivity profile evaluated by CEREP; assay type: biochemical; settings: 10 μM; data not shown
T2 construct: CEREP
Method: (§2) The selectivity profile of compound 6a (LASSBio-448) toward the human PDE1, PDE2, PDE5-PDE8, PDE10 and PDE11 was evaluated by CEREP.

PDE1B = molecular target: T3, PDE1B (Homo sapiens, UniProt Q01064); assay: PDE selectivity profile evaluated by CEREP; assay type: biochemical; settings: 10 μM; data not shown
T3 construct: CEREP
Method: as §2

A/J mice [2] = assay: Murine model of asthma with 4 weekly OVA provocations (days 14, 21, 28, 35), interventional treatment; assay type: in vivo; settings: LASSBio-448 100 mg/Kg oral
Method: Sensitization was performed by means of a subcutaneous injection of 50 μg ovalbumin (OVA) (grade V; Sigma-Aldrich, St. Louis, MO) adsorbed to 5 mg of Al(OH)3 in 0.2 mL of sterile 0.9% NaCl (saline) at days 0 and 14. Intranasal OVA provocations (25 μg /25 μL saline) were performed at 19 and 20 days post-sensitization under isofluorane volatile anaesthesia (Cristalia, São Paulo, Brazil). Alternatively, sensitization as described above were done at days 0 and 7, while the OVA provocations were carried out at days 14, 21, 28 and 35 [39]. Negative control groups were represented by sensitized mice in which allergen was replaced by saline as a challenge. Treatments were done orally 1 h before provocations. Test compounds were dissolved in saline containing 0.2% Tween 80. All solutions were freshly prepared immediately before use. Analyses were performed 24 h after the last provocation.
as §1
The EPO activity present in lung tissue was determined with a colorimetric assay as described by Strath et al. (1985), with minor modifications. Briefly, the lungs were cannulated and perfused with saline/EDTA (20 mM). Then, lung samples were homogenized in buffer solution containing 0.5% HBSS (Hank´s balanced solution, pH 7.4; Sigma Chemical Co.) using a tissue homogenizer (T25 ultra-Tirrax). Samples were centrifuged at 1300 xg for 10 min at 4°C. Red blood cells were removed by hypotonic and hypertonic lysis. The suspended cells were then centrifuged again at 1300 xg for 10 min at 4°C. The pellet was then suspended in a solution of HBSS containing 0.5% of HTAB (hexadecyltrimethylamonium bromide; Sigma Chemical Co.) (pH 7.4). This suspension was subjected to heat shock for lysing the cells in three cycles freeze/thawed. At the end, the supernatants were collected, centrifuged at 12000 rpm for 15 min at 4°C and assayed spectrophotometrically for EPO determination. Fifty μl of the samples were placed, and then 50 μl of the substrate (1.5 mM o-phenylenediamine and 6.6 mM hydrogen peroxide in 0.05 mM Tris-HCl buffer, pH 8.0) was added and, after a 30 min incubation at room temperature, 50 μl of H2SO4 (4M) was added to stop the reaction. The optical density reading was performed on the SpectraMax M5 spectrophotometer (Molecular Devices) at a wavelength of 492 nm.
Right lungs tissue samples from saline- and OVA-exposed mice were homogenized in PBS containing 0.05% Triton X-100 and a protease inhibitor cocktail (Complete®, Hoffmann-La Roche Ltd, Basel, Switzerland). After centrifugation at 13000xg for 10 min and 4°C, the levels of IL-13, IL-5, IL-4 and eotaxin-2 were quantified in the supernatant, using commercially available ELISA kits (DuoSet; R&D Systems, Minneapolis, MN, USA). The results were expressed as picograms of cytokine per right lung.

[3] = rolipram 10 mg/Kg oral, right lung, 24 h after last challenge, vs vehicle, Fig 8

T1 sequence (Q08499 1-673 isoform Q08499-2): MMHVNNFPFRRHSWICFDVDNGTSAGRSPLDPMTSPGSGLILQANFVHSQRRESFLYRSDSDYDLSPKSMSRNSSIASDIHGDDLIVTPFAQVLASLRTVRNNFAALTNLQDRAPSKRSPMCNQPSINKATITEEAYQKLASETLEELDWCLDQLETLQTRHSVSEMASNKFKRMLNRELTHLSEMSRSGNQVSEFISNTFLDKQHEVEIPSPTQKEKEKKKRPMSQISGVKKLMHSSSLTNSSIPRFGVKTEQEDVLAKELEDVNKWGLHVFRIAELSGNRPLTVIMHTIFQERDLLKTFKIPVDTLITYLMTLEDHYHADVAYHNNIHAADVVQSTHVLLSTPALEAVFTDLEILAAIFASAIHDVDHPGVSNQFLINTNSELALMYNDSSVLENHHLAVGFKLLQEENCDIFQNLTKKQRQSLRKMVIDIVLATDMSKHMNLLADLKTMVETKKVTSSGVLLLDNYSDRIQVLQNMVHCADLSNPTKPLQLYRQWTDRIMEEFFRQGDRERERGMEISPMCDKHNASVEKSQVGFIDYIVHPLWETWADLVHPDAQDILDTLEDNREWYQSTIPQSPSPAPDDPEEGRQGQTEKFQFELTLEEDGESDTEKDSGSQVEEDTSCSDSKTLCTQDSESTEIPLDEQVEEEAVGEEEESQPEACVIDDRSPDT
T2 sequence (O00408 whole entry): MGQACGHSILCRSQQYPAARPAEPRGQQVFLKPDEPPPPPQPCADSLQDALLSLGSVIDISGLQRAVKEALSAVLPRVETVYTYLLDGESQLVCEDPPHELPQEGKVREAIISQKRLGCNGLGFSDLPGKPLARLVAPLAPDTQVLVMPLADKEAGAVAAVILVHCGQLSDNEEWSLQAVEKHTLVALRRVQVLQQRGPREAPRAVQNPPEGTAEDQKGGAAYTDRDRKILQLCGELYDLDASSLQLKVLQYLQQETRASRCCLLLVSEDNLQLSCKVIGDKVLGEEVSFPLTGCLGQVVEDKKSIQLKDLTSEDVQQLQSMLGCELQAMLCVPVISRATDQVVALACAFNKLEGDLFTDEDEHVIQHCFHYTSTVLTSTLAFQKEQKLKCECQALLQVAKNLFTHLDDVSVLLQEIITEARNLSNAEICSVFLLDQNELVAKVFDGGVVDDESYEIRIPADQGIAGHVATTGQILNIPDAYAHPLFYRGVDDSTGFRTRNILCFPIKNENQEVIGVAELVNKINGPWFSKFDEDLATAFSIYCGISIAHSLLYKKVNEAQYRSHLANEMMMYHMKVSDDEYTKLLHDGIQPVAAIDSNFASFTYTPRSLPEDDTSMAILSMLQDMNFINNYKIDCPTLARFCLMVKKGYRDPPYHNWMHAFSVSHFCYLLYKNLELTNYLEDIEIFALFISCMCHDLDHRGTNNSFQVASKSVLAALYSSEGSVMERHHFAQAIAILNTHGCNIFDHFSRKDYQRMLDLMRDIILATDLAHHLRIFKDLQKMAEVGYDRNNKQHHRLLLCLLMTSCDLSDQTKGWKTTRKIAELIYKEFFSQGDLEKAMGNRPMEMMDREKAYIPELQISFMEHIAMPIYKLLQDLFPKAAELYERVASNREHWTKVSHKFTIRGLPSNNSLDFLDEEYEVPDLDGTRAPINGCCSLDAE
T3 sequence (Q01064 whole entry): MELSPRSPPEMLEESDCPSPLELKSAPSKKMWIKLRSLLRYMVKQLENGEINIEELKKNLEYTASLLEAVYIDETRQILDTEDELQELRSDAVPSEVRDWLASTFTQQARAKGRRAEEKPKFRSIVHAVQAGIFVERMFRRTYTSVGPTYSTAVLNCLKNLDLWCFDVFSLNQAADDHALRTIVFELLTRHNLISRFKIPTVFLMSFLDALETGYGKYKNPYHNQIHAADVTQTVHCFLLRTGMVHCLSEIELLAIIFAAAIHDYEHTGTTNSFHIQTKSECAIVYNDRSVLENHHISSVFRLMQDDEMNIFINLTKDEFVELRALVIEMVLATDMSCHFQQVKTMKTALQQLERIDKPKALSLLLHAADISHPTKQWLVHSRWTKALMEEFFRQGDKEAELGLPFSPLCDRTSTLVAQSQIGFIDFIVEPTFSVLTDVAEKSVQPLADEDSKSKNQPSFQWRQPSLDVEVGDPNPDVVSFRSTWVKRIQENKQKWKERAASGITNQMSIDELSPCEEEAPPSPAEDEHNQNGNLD

inhibition at 1 µM (PDE4D; 1 μM, mean ± SEM, 3 experiments, read-out: PDE4D3 inhibition): 26.5 ± 0.7%
selective inhibitory index (SI) PDE4D/PDE4A (PDE4D; ratio of IC50 values): 6.7
selective inhibitory index (SI) PDE4D/PDE4B (PDE4D; ratio of IC50 values): 3.3
IC50 (PDE4D; recombinant enzyme, mean ± SEM of three measurements): 4.7 ± 0.09 µM
inhibition of PDE2A (PDE2A): unable to inhibit
inhibition of PDE1B (PDE1B): unable to inhibit
SMILES: COc1ccc(CCNS(=O)(=O)c2cc3c(cc2C)OCO3)cc1OC [6a (LASSBio-448), N-(3,4-dimethoxyphenethyl)-6-methylbenzo[d][1, 3]dioxole-5-sulfonamide]
LPS-induced airway hyper-reactivity (lung elastance after methacholine 3–27 mg/ml) (A/J mice [1]; Fig 9A): dose-dependently prevented
neutrophil infiltration into the lung tissue (MPO activity) (A/J mice [1]; Fig 9B): marked reduction
extracellular matrix deposition (histology) (A/J mice [2]; interventional, Fig 6): sensitive to the interventional treatment
mucus exacerbation (histology) (A/J mice [2]; interventional, Fig 6): sensitive to the interventional treatment
airway hyper-reactivity to methacholine, airway resistance (A/J mice [2]; rolipram 10 mg/Kg oral, Fig 7A): equally effective in inhibiting
airway hyper-reactivity to methacholine, lung elastance (A/J mice [2]; rolipram 10 mg/Kg oral, Fig 7B): equally effective in inhibiting
IL-4 level in lung tissue (A/J mice [2]; [3]): reduction in the levels
IL-5 level in lung tissue (A/J mice [2]; [3]): reduction in the levels
IL-13 level in lung tissue (A/J mice [2]; [3]): reduction in the levels
eotaxin-2 level in lung tissue (A/J mice [2]; [3]): reduction in the levels
allergen-induced eosinophil accumulation in the lung tissue (eosinophil peroxidase) (A/J mice [2]; rolipram 10 mg/kg oral, at third and fourth weeks of challenge, Fig 5): impair the progress
